Measurements taken from US10947199B2, “Spiro and cyclic bis-benzylidene proteasome inhibitor for the treatment of cancer, diabetes and neurological disorders” (UP THERAPEUTICS, INC., priority 2017, dated 2021).
“Also recorded” adds a separate entry of the source.

Legend:
[1] = system: HFF(primary human foreskin fibroblast); assay: MTT cell viability assay, HFF; assay type: cell-based; conditions: Normal Cell line, 24 or 48 or 72 hours
Method: (§1) Briefly cancer cells incubated with Up compounds for the period of 24 or 48 or 72 hours and the cell viability was measured using MTT assay. IC50 of compounds listed in Table1.

[2] = system: NFκB reporter in 293 cells; assay: NFκB reporter assay in 293 cells stimulated with TNF-a; assay type: cell-based; conditions: 293 cells carrying NFκB reporter construct
From the text: (§2) NFκB is constitutively activated in many cancers including high grade cervical intraepithelial neoplasia (CIN) and cervical cancer.

ES2 = assay: MTT cell viability assay, ES2; assay type: cell-based, human; conditions: ES2, Ovarian Cancer, 24 or 48 or 72 hours
Method: as §1

RPMI8226 = assay: MTT cell viability assay, RPMI8226; assay type: cell-based; conditions: RPMI8226, Multiple Myeloma, 24 or 48 or 72 hours
Method: as §1

RPN13 [3] = molecular target: T1, RPN13 (Homo sapiens, UniProt Q16186); assay: RA190B probe competition assay, OV2008 cell lysate; assay type: binding; conditions: compound 25 μM, RA190B 5 μM
T1 construct: HeLa cell lysate was pretreated with Up109 or Up117; endogenous in cells; host or cells: HeLa cell lysate
Method: (§3) To identify the cellular target, a competition assay was performed using RA190B probe. […] We used RA190B as a probe to determine the Up compounds binding to RPN13. OV2008 cell lysate was pretreated with Up compounds (25 μM) and then subsequently treated with RA190B (5 μM). Lysate was denatured under reduced conditions and proteins were separated on a gel and probed with HRP Streptavidin.

A2780 cancer cells = assay: Colony formation, A2780; assay type: cell-based; conditions: corresponding to IC50 values
SKOV3 = assay: MTT cell viability assay, SKOV3; assay type: cell-based; conditions: SKOV3, Ovarian Cancer, 24 or 48 or 72 hours
Method: as §1

RPMI8226-R = assay: MTT cell viability assay, RPMI8226-R; assay type: cell-based; conditions: Multiple Myeloma, 24 or 48 or 72 hours
Method: as §1

RPN13 [4] = molecular target: T1, RPN13; assay: RA190B probe competition assay, HeLa cell lysate; assay type: binding; conditions: HeLa cell lysate pretreated with compound
Method: as §3, with “compound” for “compounds”, “HeLa” for “OV2008”, “Up109 or Up117” for “Up compounds (25 μM)”, “RA190B.” for “RA190B (5 μM).”, “HRPStreptavidin.” for “HRP Streptavidin.”

HCC1806 = assay: MTT cell viability assay, HCC1806; assay type: cell-based; conditions: HCC1806, Triple Negative Breast Cancer, 24 or 48 or 72 hours
Method: as §1

A2780 = assay: MTT cell viability assay, A2780; assay type: cell-based; conditions: A2780, Ovarian Cancer, 24 or 48 or 72 hours
Method: as §1

MM.1S = assay: MTT cell viability assay, MM.1S; assay type: cell-based; conditions: Multiple Myeloma, 24 or 48 or 72 hours
Method: as §1

HS578T = assay: MTT cell viability assay, HS578T; assay type: cell-based; conditions: Triple Negative Breast Cancer, 24 or 48 or 72 hours
Method: as §1

OV2008 cancer cells = assay: Colony formation, OV2008; assay type: cell-based; conditions: corresponding to IC50 values
SKOV3-TR = assay: MTT cell viability assay, SKOV3-TR; assay type: cell-based; conditions: for IC50: SKOV3-TR, Ovarian Cancer (taxol resistant), MTT, 24 or 48 or 72 hours; for difference in activity between SKOV3 and its taxol resistant line (SKOV3-TR): SKOV3 vs SKOV3-TR
Method: as §1

LNCaP = assay: MTT cell viability assay, LNCaP; assay type: cell-based; conditions: Prostate Cancer, 24 or 48 or 72 hours
Method: as §1

HeLa = assay: MTT cell viability assay, HeLa; assay type: cell-based; conditions: Cervical Cancer, 24 or 48 or 72 hours
Method: as §1

DU145 = assay: MTT cell viability assay, DU145; assay type: cell-based; conditions: DU145, Prostate Cancer, 24 or 48 or 72 hours
Method: as §1

MDA-MB-231 = assay: MTT cell viability assay, MDA-MB-231; assay type: cell-based; conditions: MDA-MB-231, Triple Negative Breast Cancer, 24 or 48 or 72 hours
Method: as §1

[5] = system: proteasome function (4Ub-FL reporter) in 293TT cells; assay: 4Ub-FL reporter assay of proteasome function in live cells; assay type: cell-based; conditions: 293TT cells expressing 4Ub-FL; for 4Ub-FL reporter stabilization / bioluminescence increase (qualitative): dose dependent
From the text: (§4) To measure proteasome function in live cells, we utilized an engineered ubiquitin-firefly (4Ub-FL) reporter in which four copies of mutant ubiquitin (ubiquitin G76V) gene are fused to the N-terminus of the firefly luciferase (FL) gene. The results of this experiment, shown in FIG. 1, reveal that the 4Ub-FL reporter protein is rapidly degraded by the proteasome.
as §4, with “The” for “The results of this experiment, shown in FIG. 1, reveal that the”, “proteasome (FIG. 6). […] Treatment of Up109 produced a greater increase in the 4Ub-FL bioluminescence in a dose dependent manner.” for “proteasome.”

OVCAR5 = assay: MTT cell viability assay, OVCAR5; assay type: cell-based; conditions: OVCAR5, Ovarian Cancer, 24 or 48 or 72 hours
Method: as §1

[6] = system: K48-linked polyubiquitinated proteins in HeLa cells; assay: anti-K48-linked ubiquitin immunoblot in HeLa cells; assay type: cell-based; conditions: 4 hr treatment
From the text: Accumulation of poly ubiquitinated proteins is a general phenomenon of proteasome inhibition. We examined the impact of these compounds on the levels of polyubiquitinated proteins in HeLa cells by anti-K48-linked ubiquitin immunoblot analysis.

PC-3 = assay: MTT cell viability assay, PC-3; assay type: cell-based; conditions: PC-3, Prostate Cancer, 24 or 48 or 72 hours
Method: as §1

OV2008 = assay: MTT cell viability assay, OV2008; assay type: cell-based; conditions: OV2008, Ovarian Cancer, 24 or 48 or 72 hours
Method: as §1

IkB-a in HeLa cells = assay: IkB-a stabilization in HeLa cells with TNF-a; assay type: cell-based; conditions: in the presence of TNF-a
From the text: as §2

HepG2 = assay: MTT cell viability assay, HepG2; assay type: cell-based; conditions: HepG2, Liver Cancer, 24 or 48 or 72 hours
Method: as §1

ES2 cells = assay: Annexin-V staining by FACS of ES2 cells; assay type: cell-based, human; conditions: 12 h
Method: FIG. 8: (A) CHOP-10 quantification in ES2 cells treated with Up109 for 12 h; (B) Annexin-V staining by FACS analysis of ES2 cells treated with Up109 and Bortezomib for 12 h.
(§5) Accumulation of unfolded proteins upon the inhibition of proteasome function rapidly induces endoplasmic reticulum (ER) stress. ER stress triggers an evolutionarily conserved series of signal-transduction events, which constitute the unfolded protein response (UPR). The UPR attempts to restore protein homeostasis by eliminating the accumulated unfolded proteins in the ER; however, if protein homeostasis cannot be restored, apoptosis is triggered. C/EBP homologous protein (CHOP) is elevated at the onset of UPR-induced programmed cell death.

OVCAR3 = assay: MTT cell viability assay, OVCAR3; assay type: cell-based; conditions: OVCAR3, Ovarian Cancer, 24 or 48 or 72 hours
Method: as §1

[7] = system: proteasome (4UbFL reporter) in muscle cells; assay: 4UbFL reporter in muscle of live mice, IVIS imaging; assay type: in vivo; conditions: Balb/c mice, i.p. 40 mg/Kg; imaged 4 h, 24 h and 48 h post treatment
Method: To test for proteasome inhibition by Up109 in vivo, muscle cells of live Balb/c mice transduced with the 4UbFL reporter DNA construct by electroporation. After i.p. injection of luciferin, the enzymic activity of luciferase in the transfected muscle tissue was visualized as bioluminescence using an IVIS imager. At two days post electroporation of the 4UbFL DNA, mice were imaged and base line luminescence recorded. The control group (n=5) of mice was treated i.p. with vehicle alone and another group (n=5) treated i.p with Up109 (40 mg/Kg). After 4 h, 24 h and 48 h post treatment mice were again imaged and luminescence was quantified (FIG. 9).

[8] = system: human ovarian cancer ES2 xenograft (ES2-Lu); assay: ES2-Lu ovarian cancer xenograft, intraperitoneal; assay type: in vivo; conditions: nude female mice, 10 mg/Kg on alternate days for two weeks
Method: To test the efficacy of Up109 to treat the human ovarian cancer ES2 xenograft model, the luciferase-expressing ES2 cells (ES2-Lu) were inoculated into peritoneal cavity of nude female mice (i.e. orthotopically). Two days after inoculation the mice were imaged for their basal luminescence activity and then randomized into two groups (n=10). First group was treated with the vehicle and the second group was treated with Up109 (10 mg/Kg) on alternate days for two weeks. Mice were imaged after the first and second week of treatment for their luciferase activity. […] Tumor burden in the vehicle group mice was excessive and sacrificed at the end of the treatment (FIG. 10).

[9] = Dose limiting toxicity studies; assay type: in vivo
Method: To identify the optimal dose that induces a clinical effect and operates with acceptable toxicity a set of experiments has been performed on female Balb/C strain mice with Up109. Individual groups of mice (n=3) were injected i.p. with increasing single doses of Up109 (3, 10, 20, 40 and 100 mg/Kg) and the endpoint evaluations included clinical observations and body weights. […] Another experiment was done with repeated i.p. doses of Up109 (40 mg/Kg, n=5) every other day for two weeks.

[10] = system: CHOP-10 mRNA in ES2 cells; assay: CHOP-10 mRNA expression in ES2 cells; assay type: cell-based, human; conditions: 12 h
From the text: as §5

T1 sequence (Q16186 whole entry): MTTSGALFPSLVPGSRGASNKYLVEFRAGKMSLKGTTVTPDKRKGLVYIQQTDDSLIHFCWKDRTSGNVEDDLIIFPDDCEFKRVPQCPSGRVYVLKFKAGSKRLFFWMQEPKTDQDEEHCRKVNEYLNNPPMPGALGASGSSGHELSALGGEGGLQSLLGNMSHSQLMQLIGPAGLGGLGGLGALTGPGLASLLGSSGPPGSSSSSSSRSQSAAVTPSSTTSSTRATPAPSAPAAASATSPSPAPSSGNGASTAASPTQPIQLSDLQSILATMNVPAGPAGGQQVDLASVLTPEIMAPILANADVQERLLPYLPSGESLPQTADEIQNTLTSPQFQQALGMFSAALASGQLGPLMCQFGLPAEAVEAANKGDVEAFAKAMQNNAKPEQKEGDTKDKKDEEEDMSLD

SMILES | IC50 [1] | NFκB reporter activity after stimulation with TNF-a [2] | IC50 (ES2) | IC50 (RPMI8226) | competition with RA190B for binding to RPN13 (RPN13 [3]) | colony formation (A2780 cancer cells) | IC50 (SKOV3) | IC50 (RPMI8226-R) | competition with RA190B for binding to RPN13 (RPN13 [4]) | IC50 (HCC1806) | IC50 (A2780) | IC50 (MM.1S) | IC50 (HS578T) | colony formation (OV2008 cancer cells) | IC50 (SKOV3-TR) | difference in activity between SKOV3 and its taxol resistant line (SKOV3-TR) (SKOV3-TR) | IC50 (LNCaP) | IC50 (HeLa) | IC50 (DU145) | IC50 (MDA-MB-231) | further results
O=C(CCl)NC(Cc1ccccc1)C(=O)N1CCC2(CC1)C(=Cc1ccc([N+](=O)[O-])cc1)C(=O)C2=Cc1ccc([N+](=O)[O-])cc1 (stereo not drawn) [Up117] | > 1.25 µM | significant dose-dependent decrease | 0.041 µM | 0.14 µM | Disappearance of RA190B labeling | significantly blocked colony formation | 0.157 µM | 0.078 µM | disappearance of RA190B labeling | 0.071 µM | 0.022 µM | 0.042 µM | 0.032 µM | significantly blocked colony formation | 0.202 µM | similarly active | 0.087 µM | 0.089 µM | 0.13 µM | 0.056 µM | 4Ub-FL reporter stabilization / bioluminescence increase (qualitative) [5]: greater increase in the 4Ub-FL bioluminescence than RA190; IC50 (OVCAR5): 0.037 µM; levels of K48-linked polyubiquitinated proteins [6]: dramatically increased; IC50 (PC-3): 0.074 µM; IC50 (OV2008): 0.047 µM; stabilization of IkB-a (IkB-a in HeLa cells): Stabilization of IkB-a was observed; IC50 (HepG2): 0.447 µM
CC(=O)O[C@H]1C(=O)[C@@]2(C)[C@H]([C@H](OC(=O)c3ccccc3)[C@]3(O)C[C@H](OC(=O)[C@H](O)[C@@H](NC(=O)c4ccccc4)c4ccccc4)C(C)=C1C3(C)C)[C@]1(OC(C)=O)CO[C@@H]1C[C@@H]2O [Taxol, reference compound] | – | – | – | – | – | – | – | – | – | – | – | – | – | – | – | 7 fold | – | – | – | – | –
Cl.N[C@@H](Cc1ccccc1)C(=O)N1C/C(=C/c2ccc(Cl)c(Cl)c2)C(=O)/C(=C\c2ccc(Cl)c(Cl)c2)C1 [RA190, reference compound] | – | significant dose-dependent decrease | – | – | – | – | – | – | – | – | – | – | – | – | – | – | – | – | – | – | increase in 4Ub-FL bioluminescence compared to before treatment [5]: fivefold increase
C=CC(=O)N1CCC2(CC1)C(=Cc1ccc([N+](=O)[O-])cc1)C(=O)C2=Cc1ccc([N+](=O)[O-])cc1 [Up109] | > 1.25 µM | significant dose-dependent decrease | 0.022 µM | 0.123 µM | Disappearance of RA190B labeling | significantly blocked colony formation | 0.045 µM | 0.061 µM | disappearance of RA190B labeling | 0.042 µM | 0.013 µM | 0.035 µM | 0.017 µM | significantly blocked colony formation | 0.058 µM | similarly active | 0.065 µM | 0.075 µM | 0.077 µM | 0.038 µM | Annexin-V positive cells (apoptosis) (ES2 cells): elevation of apoptosis; IC50 (OVCAR3): 0.021 µM; 4UbFL reporter stabilization in vivo (bioluminescence) [7]: Stabilized; weight loss and observable side effects [8]: no weight loss and any observable side effects; tumor burden compared to the vehicle ([8]; ES2-Lu i.p.): significantly reduced the tumor burden; toxicities/weight loss, repeated dose ([9]; Balb/C mice, i.p. 40 mg/Kg every other day for two weeks): No observable toxicities/weight loss; clinical observations and body weights, single dose ([9]; female Balb/C mice, single i.p. doses 3, 10, 20, 40 and 100 mg/Kg): No clinically apparent sign of adverse effect; CHOP-10 mRNA expression [10]: rapidly up-regulated; increase in 4Ub-FL bioluminescence compared to before treatment [5]: thirteen-fold increase; 4Ub-FL reporter stabilization / bioluminescence increase (qualitative) [5]: greater increase in the 4Ub-FL bioluminescence than RA190; also recorded: stabilization and an increase in luciferase activity; IC50 (OVCAR5): 0.019 µM; levels of K48-linked polyubiquitinated proteins [6]: dramatically increased; IC50 (PC-3): 0.057 µM; IC50 (OV2008): 0.034 µM; stabilization of IkB-a (IkB-a in HeLa cells): Stabilization of IkB-a was observed; IC50 (HepG2): 0.118 µM
